Reference: patent publication US20140303092A1 (CHIMERIX, INC., priority 2011, published 2014)

Assay: Study HDP-CDV-201: safety and tolerability (adverse events, laboratory abnormalities, discontinuations)
Format: in vivo, human (adult allogeneic HSCT recipients)
Protocol: Clinical Studies of HDP-CDV were performed and described in detail in the following Examples. For example, HDP-CDV-201 is a placebo-controlled, dose-escalating trial in HSCT CMV (R+) recipients, evaluating the ability of HDP-CDV to prevent or control CMV infection was carried out. Five cohorts were established in which participants or subjects received either placebo or the HDP-CDV orally, in doses ranging from 40 mg weekly (QW) to 200 mg twice weekly (BIW). Subjects who were post-HSCT were enrolled at the time of engraftment and randomized to HDP-CDV or placebo (3 to 1 ratio) and received blinded therapy until approximately 100 day post-transplantation. HDP-CDV doses were 40 mg QW, 100 mg QW, 200 mg QW, 200 mg BIW and 100 mg BIW. Escalation to the next dose was decided by the data monitoring committee after review of the safety data from the previous Cohort. Subjects who developed CMV disease or CMV infection requiring pre-emptive therapy with local standard of care were discontinued from blinded therapy and followed for 4 weeks. Subjects who completed treatment with blinded therapy were followed for 8 weeks post-therapy.
Data from Study HDP-CDV-201 also provided characterization of the safety and tolerability profile of HDP-CDV when administered for the prevention or control of CMV infection in high risk (R^+) post-HSCT adult subjects.
The Safety population (SAFETY) included all randomized subjects who took at least one dose of study treatment. This population was used to summarize safety outcomes based on the treatment actually received, in cases where a subject was treated contrary to the randomization schedule.
The safety and tolerability profile of HDP-CDV, including subject demographics and Baseline characteristics; the AE profile; and laboratory abnormalities of interest were analyzed in the cohorts followed in this investigation.
Subjects completing the treatment period received a full course of study medication; those completing the entire study attended visits through 8 weeks of follow up. Subjects who discontinued treatment may have done so for protocol specified reasons (e.g. development of clinically significant CMV infection requiring preemptive treatment with excluded anti-CMV medications) or for other reasons (e.g., withdrawal, adverse events, loss to follow-up). The disposition of subjects in Study HDP-CDV-201 during the double-blind, placebo-controlled treatment period (through Week 11) is listed by dosing Cohort in TABLE 23.
Adverse events were examined by severity to ensure that all safety signals were identified in this study population. Because of the frequency of events in HSCT recipients, particular attention was given to evaluation of Grade 3 […], 4 (severe), and 5 (fatal) adverse events.
Only those preferred terms for which at least one Grade 3 or higher event was experienced in any treatment group are listed. Cytomegalovirus-related AEs are excluded from this analysis.
HDP-CDV is a lipid conjugate of CDV. Because CDV is known to have adverse effects on renal function and bone marrow, decreased GFR and persistent neutropenia were identified as AEs of special interest. Key renal and hematological (TABLE 30) laboratory parameters were measured and listed below by Study HDP-CDV-201 treatment groups. TABLE 30 includes abnormal levels of serum creatinine, neutrophils, platelets, WBCs, and hemoglobin and includes data at Screening and during the treatment period.
A common metric for unit based dosing of medications is by weight (mg/kg). When the distribution of weights was examined for all subjects participating in the study, the median was 78 kg and the lower 25th percentile weight was approximately 65 kg, which translates to a cut-off of ˜3 mg/kg for a 200 mg total weekly dose. Based upon this approach, a cut-off of 3 mg/kg was used to assess the frequency of diarrhea and associated GI AEs reported for the subjects in Cohorts 3 or 4a (TABLE 40).

CCCCCCCCCCCCCCCCOCCCOP(=O)(O)COC(CO)Cn1ccc(N)nc1=O (stereo not drawn) [HDP-CDV]
TEAE GGT Increased, Frequency (100 mg QW): 1 (3.7%) | TEAE GGT Increased, Grade 2 (100 mg QW): 1 (3.7%) | TEAE GGT Increased, Grade 3 (100 mg QW): 0 | TEAE GGT Increased, Grade 4 (100 mg QW): 0 | TEAE GGT Increased, Grade 5 (100 mg QW): 0 | TEAE Generalized oedema, Frequency (100 mg QW): 0 | TEAE Generalized oedema, Grade 2 (100 mg QW): 0 | TEAE Generalized oedema, Grade 3 (100 mg QW): 0 | TEAE Generalized oedema, Grade 4 (100 mg QW): 0 | TEAE Generalized oedema, Grade 5 (100 mg QW): 0 | TEAE Hyperbilirubinaemia, Frequency (100 mg QW): 0 | TEAE Hyperbilirubinaemia, Grade 2 (100 mg QW): 0 | TEAE Hyperbilirubinaemia, Grade 3 (100 mg QW): 0 | TEAE Hyperbilirubinaemia, Grade 4 (100 mg QW): 0 | TEAE Hyperbilirubinaemia, Grade 5 (100 mg QW): 0 | TEAE Hyperglycaemia, Frequency (100 mg QW): 1 (3.7%) | TEAE Hyperglycaemia, Grade 2 (100 mg QW): 0 | TEAE Hyperglycaemia, Grade 3 (100 mg QW): 1 (3.7%) | TEAE Hyperglycaemia, Grade 4 (100 mg QW): 0 | TEAE Hyperglycaemia, Grade 5 (100 mg QW): 0 | TEAE Hyperkalemia, Frequency (100 mg QW): 1 (3.7%) | TEAE Hyperkalemia, Grade 2 (100 mg QW): 0 | TEAE Hyperkalemia, Grade 3 (100 mg QW): 1 (3.7%) | TEAE Hyperkalemia, Grade 4 (100 mg QW): 0 | TEAE Hyperkalemia, Grade 5 (100 mg QW): 0 | TEAE Hypocalcaemia, Frequency (100 mg QW): 0 | TEAE Hypocalcaemia, Grade 2 (100 mg QW): 0 | TEAE Hypocalcaemia, Grade 3 (100 mg QW): 0 | TEAE Hypocalcaemia, Grade 4 (100 mg QW): 0 | TEAE Hypocalcaemia, Grade 5 (100 mg QW): 0 | TEAE Hypokalaemia, Frequency (100 mg QW): 2 (7.4%) | TEAE Hypokalaemia, Grade 2 (100 mg QW): 0 | TEAE Hypokalaemia, Grade 3 (100 mg QW): 0 | TEAE Hypokalaemia, Grade 4 (100 mg QW): 0 | TEAE Hypokalaemia, Grade 5 (100 mg QW): 0 | TEAE Hyponatraemia, Frequency (100 mg QW): 1 (3.7%) | TEAE Hyponatraemia, Grade 2 (100 mg QW): 0 | TEAE Hyponatraemia, Grade 3 (100 mg QW): 0 | TEAE Hyponatraemia, Grade 4 (100 mg QW): 0 | TEAE Hyponatraemia, Grade 5 (100 mg QW): 0 | TEAE LFT Abnormal, Frequency (100 mg QW): 1 (3.7%) | TEAE LFT Abnormal, Grade 2 (100 mg QW): 0 | TEAE LFT Abnormal, Grade 3 (100 mg QW): 0 | TEAE LFT Abnormal, Grade 4 (100 mg QW): 0 | TEAE LFT Abnormal, Grade 5 (100 mg QW): 0 | TEAE Leukocytosis, Frequency (100 mg QW): 0 | TEAE Leukocytosis, Grade 2 (100 mg QW): 0 | TEAE Leukocytosis, Grade 3 (100 mg QW): 0 | TEAE Leukocytosis, Grade 4 (100 mg QW): 0 | TEAE Leukocytosis, Grade 5 (100 mg QW): 0 | TEAE Nausea, Frequency (100 mg QW): 5 (18.5%) | TEAE Nausea, Grade 2 (100 mg QW): 1 (3.7%) | TEAE Nausea, Grade 3 (100 mg QW): 0 | TEAE Nausea, Grade 4 (100 mg QW): 0 | TEAE Nausea, Grade 5 (100 mg QW): 0 | TEAE Neutropenia, Frequency (100 mg QW): 4 (14.8%) | TEAE Neutropenia, Grade 2 (100 mg QW): 1 (3.7%) | TEAE Neutropenia, Grade 3 (100 mg QW): 2 (7.4%) | TEAE Neutropenia, Grade 4 (100 mg QW): 1 (3.7%) | TEAE Neutropenia, Grade 5 (100 mg QW): 0 | TEAE Pneumonia, Frequency (100 mg QW): 2 (7.4%) | TEAE Pneumonia, Grade 2 (100 mg QW): 0 | TEAE Pneumonia, Grade 3 (100 mg QW): 1 (3.7%) | TEAE Pneumonia, Grade 4 (100 mg QW): 1 (3.7%) | TEAE Pneumonia, Grade 5 (100 mg QW): 0 | TEAE Pyrexia, Frequency (100 mg QW): 1 (3.7%) | TEAE Pyrexia, Grade 2 (100 mg QW): 0 | TEAE Pyrexia, Grade 3 (100 mg QW): 0 | TEAE Pyrexia, Grade 4 (100 mg QW): 0 | TEAE Pyrexia, Grade 5 (100 mg QW): 0 | TEAE Renal Failure, Frequency (100 mg QW): 2 (7.4%) | TEAE Renal Failure, Grade 2 (100 mg QW): 2 (7.4%) | TEAE Renal Failure, Grade 3 (100 mg QW): 0 | TEAE Renal Failure, Grade 4 (100 mg QW): 0 | TEAE Renal Failure, Grade 5 (100 mg QW): 0 | TEAE Staphylococcal Bacteremia, Frequency (100 mg QW): 1 (3.7%) | TEAE Staphylococcal Bacteremia, Grade 2 (100 mg QW): 0 | TEAE Staphylococcal Bacteremia, Grade 3 (100 mg QW): 1 (3.7%) | TEAE Staphylococcal Bacteremia, Grade 4 (100 mg QW): 0 | TEAE Staphylococcal Bacteremia, Grade 5 (100 mg QW): 0 | TEAE Thrombocytopenia, Frequency (100 mg QW): 3 (11.1%) | TEAE Thrombocytopenia, Grade 2 (100 mg QW): 1 (3.7%) | TEAE Thrombocytopenia, Grade 3 (100 mg QW): 1 (3.7%) | TEAE Thrombocytopenia, Grade 4 (100 mg QW): 1 (3.7%) | TEAE Thrombocytopenia, Grade 5 (100 mg QW): 0 | TEAE Vomiting, Frequency (100 mg QW): 6 (22.2%) | TEAE Vomiting, Grade 2 (100 mg QW): 2 (7.4%) | TEAE Vomiting, Grade 3 (100 mg QW): 0 | TEAE Vomiting, Grade 4 (100 mg QW): 0 | TEAE Vomiting, Grade 5 (100 mg QW): 0 | Subjects Reporting Diarrhea as an AE (100 mg QW, n = 27): 8 (29.6%) | Discontinuation: Death (100 mg QW, active treatment period): 0 Subject n (%) | Discontinuation: Adverse event (100 mg QW, active treatment period through Week 11): 3 (11.1%) Subject n (%) | subjects who discontinued study medications (100 mg weekly): 33% | TEAE ALT increased, Frequency (200 mg BIW): 10 (33.3%) | TEAE ALT increased, Grade 2 (200 mg BIW): 4 (13.3%) | TEAE ALT increased, Grade 3 (200 mg BIW): 2 (6.7%) | TEAE ALT increased, Grade 4 (200 mg BIW): 0 | TEAE ALT increased, Grade 5 (200 mg BIW): 0 | TEAE AML, Recurrent, Frequency (200 mg BIW): 0 | TEAE AML, Recurrent, Grade 2 (200 mg BIW): 0 | TEAE AML, Recurrent, Grade 3 (200 mg BIW): 0 | TEAE AML, Recurrent, Grade 4 (200 mg BIW): 0 | TEAE AML, Recurrent, Grade 5 (200 mg BIW): 0 | TEAE AST increased, Frequency (200 mg BIW): 7 (23.3%) | TEAE AST increased, Grade 2 (200 mg BIW): 3 (10.0%) | TEAE AST increased, Grade 3 (200 mg BIW): 0 | TEAE AST increased, Grade 4 (200 mg BIW): 0 | TEAE AST increased, Grade 5 (200 mg BIW): 0 | TEAE Abdominal pain, Frequency (200 mg BIW): 11 (36.7%) | TEAE Abdominal pain, Grade 2 (200 mg BIW): 8 (26.7%)
